Reference: ChEMBL document CHEMBL1140353, “Structure-activity relationships of 1-alkyl-5-(3,4-dichlorophenyl)-5-{2-[3-(substituted)-1-azetidinyl]-ethyl}-2-piperidones. Part 2: Improving oral absorption” (Bioorg Med Chem Lett, 2005)

molecular target: T1, Substance-K receptor (Homo sapiens, UniProt P21452); assay: Inhibition of human Neurokinin 2 receptor; details: not given
T1 sequence (P21452 whole entry): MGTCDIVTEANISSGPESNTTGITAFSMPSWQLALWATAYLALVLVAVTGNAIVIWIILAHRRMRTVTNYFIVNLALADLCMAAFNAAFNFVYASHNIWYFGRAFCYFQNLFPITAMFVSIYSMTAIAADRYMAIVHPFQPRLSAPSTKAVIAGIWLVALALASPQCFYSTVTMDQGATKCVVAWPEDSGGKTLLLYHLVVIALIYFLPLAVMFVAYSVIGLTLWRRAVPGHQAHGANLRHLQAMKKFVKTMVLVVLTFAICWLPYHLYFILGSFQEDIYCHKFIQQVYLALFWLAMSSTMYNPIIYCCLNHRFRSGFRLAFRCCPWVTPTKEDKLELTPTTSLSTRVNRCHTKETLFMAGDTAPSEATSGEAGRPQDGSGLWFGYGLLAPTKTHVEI

Structure (SMILES)	IC50 [nM]
O=C1CC[C@](CCN2CC(N3CCOCC3)C2)(c2ccc(Cl)c(Cl)c2)CN1CC1CCCCC1	0.794
O=C1CCN(C2CN(CC[C@]3(c4ccc(Cl)c(Cl)c4)CCC(=O)N(CC4CCC(F)(F)CC4)C3)C2)CC1	3.16

The remaining lines, values ahead:

IC50 [nM]	Structure (SMILES)
79.4	O=C1CC[C@](CCN2CC(N3CCOCC3)C2)(c2ccc(Cl)c(Cl)c2)CN1CC1CC1
10	O=C1CC[C@](CCN2CC(N3CCC(F)CC3)C2)(c2ccc(Cl)c(Cl)c2)CN1CC1CC1
7.94	O=C1CC[C@](CCN2CC(N3CCOCC3)C2)(c2ccc(Cl)c(Cl)c2)CN1CC1CCC(F)(F)CC1
3.98	NS(=O)(=O)N1CCN(C2CN(CC[C@]3(c4ccc(Cl)c(Cl)c4)CCC(=O)N(CC4CC4)C3)C2)CC1
1.26	O=C1CC[C@](CCN2CC(N3CCC(O)CC3)C2)(c2ccc(Cl)c(Cl)c2)CN1CC1CCC(F)(F)CC1

molecular target: T1, Substance-K receptor; assay: pA2 for NK2 receptor of Human bladder; format: functional; details: read-out: pA2 (converted)

Kb [nM]	Structure (SMILES)
1.58	NS(=O)(=O)N1CCN(C2CN(CC[C@]3(c4ccc(Cl)c(Cl)c4)CCC(=O)N(CC4CC4)C3)C2)CC1

molecular target: T2, Substance-K receptor (Oryctolagus cuniculus, UniProt P79218); assay: pA2 for NK2 receptor of rabbit pulmonary artery; format: functional; details: read-out: pA2 (converted)
T2 sequence (P79218 whole entry): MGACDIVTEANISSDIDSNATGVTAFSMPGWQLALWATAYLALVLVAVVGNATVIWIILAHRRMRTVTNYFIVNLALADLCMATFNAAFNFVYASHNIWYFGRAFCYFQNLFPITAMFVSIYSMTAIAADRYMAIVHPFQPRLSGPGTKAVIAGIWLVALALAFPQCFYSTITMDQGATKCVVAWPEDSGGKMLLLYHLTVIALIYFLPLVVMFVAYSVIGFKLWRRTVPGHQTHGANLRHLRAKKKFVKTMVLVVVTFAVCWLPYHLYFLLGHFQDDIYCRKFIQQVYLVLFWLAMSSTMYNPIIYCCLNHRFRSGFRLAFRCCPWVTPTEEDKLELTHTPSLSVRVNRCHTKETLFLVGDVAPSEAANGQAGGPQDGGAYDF

Structure (SMILES)	Kb [nM]
O=C1CC[C@](CCN2CC(N3CCOCC3)C2)(c2ccc(Cl)c(Cl)c2)CN1CC1CCCCC1	1
O=C1CC[C@](CCN2CC(N3CCOCC3)C2)(c2ccc(Cl)c(Cl)c2)CN1C1(C2CC2)CCCC1	0.251
O=C1CCN(C2CN(CC[C@]3(c4ccc(Cl)c(Cl)c4)CCC(=O)N(CC4CCC(F)(F)CC4)C3)C2)CC1	0.2

Continued, values first:

Kb [nM]	Structure (SMILES)
2	O=C1CC[C@](CCN2CC(N3CCOCC3)C2)(c2ccc(Cl)c(Cl)c2)CN1CC1CC1
2.51	O=C1CC[C@](CCN2CC(N3CCC(F)CC3)C2)(c2ccc(Cl)c(Cl)c2)CN1CC1CC1
1.26	O=C1CC[C@](CCN2CC(N3CCOCC3)C2)(c2ccc(Cl)c(Cl)c2)CN1CC1CCC(F)(F)CC1
1.26	NS(=O)(=O)N1CCN(C2CN(CC[C@]3(c4ccc(Cl)c(Cl)c4)CCC(=O)N(CC4CC4)C3)C2)CC1
0.0794	O=C1CC[C@](CCN2CC(N3CCC(O)CC3)C2)(c2ccc(Cl)c(Cl)c2)CN1CC1CCC(F)(F)CC1

system: not listed separately; assay: Oral absorption of 10 mg/kg tested in rat; format: ADME, organism-based; design: dose 10 mg/kg; details: in vivo, read-out: Absorption

Fa [%]	Structure (SMILES)
< 20	NS(=O)(=O)N1CCN(C2CN(CC[C@]3(c4ccc(Cl)c(Cl)c4)CCC(=O)N(CC4CC4)C3)C2)CC1

system: not listed separately; assay: Distribution coefficient (Log D) value at pH 7.4; format: physicochemical; details: octanol/water

logD	Structure (SMILES)
2.3	O=C1CC[C@](CCN2CC(N3CCOCC3)C2)(c2ccc(Cl)c(Cl)c2)CN1CC1CC1
1.7	NS(=O)(=O)N1CCN(C2CN(CC[C@]3(c4ccc(Cl)c(Cl)c4)CCC(=O)N(CC4CC4)C3)C2)CC1
2.2	O=C1CC[C@](CCN2CC(N3CCC(O)CC3)C2)(c2ccc(Cl)c(Cl)c2)CN1CC1CCC(F)(F)CC1

system: not listed separately; assay: Half life in human microsomal liver cells; format: ADME; details: liver microsomes

Structure (SMILES)	half-life [h]
O=C1CC[C@](CCN2CC(N3CCC(F)CC3)C2)(c2ccc(Cl)c(Cl)c2)CN1C1(C2CC2)CCCC1	0.0333
O=C1CC[C@](CCN2CC(N3CCOCC3)C2)(c2ccc(Cl)c(Cl)c2)CN1CC1CCCCC1	0.233
O=C1CC[C@](CCN2CC(N3CCOCC3)C2)(c2ccc(Cl)c(Cl)c2)CN1C1(C2CC2)CCCC1	< 0.0167

Results, then the molecule that gave them:

half-life [h]	Structure (SMILES)
2	O=C1CC[C@](CCN2CC(N3CCOCC3)C2)(c2ccc(Cl)c(Cl)c2)CN1CC1CC1
1.42	O=C1CC[C@](CCN2CC(N3CCC(F)CC3)C2)(c2ccc(Cl)c(Cl)c2)CN1CC1CC1
1.33	O=C1CC[C@](CCN2CC(N3CCOCC3)C2)(c2ccc(Cl)c(Cl)c2)CN1CC1CCC(F)(F)CC1
> 2	NS(=O)(=O)N1CCN(C2CN(CC[C@]3(c4ccc(Cl)c(Cl)c4)CCC(=O)N(CC4CC4)C3)C2)CC1

species on record: Homo sapiens; assay: Ratio of apical basolateral (A-B) and basolateral apical (B-A) determined by Caco-2 assay in human (ER=2/12); format: ADME; details: not given

Caco-2 permeability	Structure (SMILES)
Permeable	O=C1CC[C@](CCN2CC(N3CCC(O)CC3)C2)(c2ccc(Cl)c(Cl)c2)CN1CC1CCC(F)(F)CC1

species on record: Homo sapiens; assay: Ratio of apical basolateral (A-B) and basolateral apical (B-A) determined by Caco-2 assay in human (ER=12/16); format: ADME; details: not given

Caco-2 permeability	Structure (SMILES)
Permeable	O=C1CC[C@](CCN2CC(N3CCOCC3)C2)(c2ccc(Cl)c(Cl)c2)CN1CC1CCCCC1

species on record: Homo sapiens; assay: Ratio of apical basolateral (A-B) and basolateral apical (B-A) determined by Caco-2 assay in human (ER=33/35); format: ADME; details: not given

Caco-2 permeability	Structure (SMILES)
Permeable	O=C1CC[C@](CCN2CC(N3CCOCC3)C2)(c2ccc(Cl)c(Cl)c2)CN1CC1CCC(F)(F)CC1

species on record: Homo sapiens; assay: Ratio of apical basolateral (A-B) and basolateral apical (B-A) determined by Caco-2 assay in human (ER=60/60); format: ADME; details: not given

Caco-2 permeability	Structure (SMILES)
Permeable	O=C1CC[C@](CCN2CC(N3CCC(F)CC3)C2)(c2ccc(Cl)c(Cl)c2)CN1C1(C2CC2)CCCC1
Permeable	O=C1CC[C@](CCN2CC(N3CCC(F)CC3)C2)(c2ccc(Cl)c(Cl)c2)CN1CC1CC1

species on record: Homo sapiens; assay: Ratio of apical basolateral (A-B) and basolateral apical (B-A) determined by Caco-2 assay in human (ratio=12/18); format: ADME; details: not given

Caco-2 permeability	Structure (SMILES)
Permeable	O=C1CC[C@](CCN2CC(N3CCOCC3)C2)(c2ccc(Cl)c(Cl)c2)CN1CC1CC1

species on record: Homo sapiens; assay: Ratio of apical basolateral (A-B) and basolateral apical (B-A) determined by Caco-2 assay in human; (ratio=1/18); format: ADME; details: not given

Caco-2 permeability	Structure (SMILES)
Permeable	NS(=O)(=O)N1CCN(C2CN(CC[C@]3(c4ccc(Cl)c(Cl)c4)CCC(=O)N(CC4CC4)C3)C2)CC1

system: not listed separately; assay: In vivo clearance of […] mg/kg of compound tested in human; format: ADME, organism-based; details: 10 mg/kg

clearance [mL/min/kg]	Structure (SMILES)
< 3	NS(=O)(=O)N1CCN(C2CN(CC[C@]3(c4ccc(Cl)c(Cl)c4)CCC(=O)N(CC4CC4)C3)C2)CC1

molecular target: T1, Substance-K receptor; assay: pKi for human Neurokinin 2 receptor; details: not given

pKi	Structure (SMILES)
10	O=C1CC[C@](CCN2CC(N3CCC(F)CC3)C2)(c2ccc(Cl)c(Cl)c2)CN1C1(C2CC2)CCCC1
9.5	O=C1CC[C@](CCN2CC(N3CCOCC3)C2)(c2ccc(Cl)c(Cl)c2)CN1C1(C2CC2)CCCC1
